Measurements published in patent US11099176B2 (priority 2015, dated 2021).
Where two headings read alike, the source gives them in different places.

Tests used:
[1] = system: Anaeromyxobacter dehalogenans adLacBP9, YP_466099.1, SEQ ID NO: 9 (expressed form SEQ ID NO: 23); experiment: Lactate binding by thermal stability shift and labeled conjugate; details: thermostability vs ligand concentration; fluorescence response of labeled conjugate
Text: (§1) These experiments comprise four successive steps: • 1. Synthetic gene construction. The amino acid sequence of the homology leads are back translated into DNA sequences. These are optimized for directing heterologous cytoplasmic expression of the protein homologues in E. coli, using either the OrfOpt or OrfMorph programs. These programs predict mRNA sequences that direct high-level protein expression in E. coli. The predicted gene sequences are assembled de novo from synthetic oligonucleotides. • 2. Heterologous protein expression of the homologues in E. coli. Plasmids carrying the synthetic expression constructs (see above) were transformed into KRX competent cells (Promega). Protein production was induced in bacterial cultures of these cultures. • 3. Purification of successfully expressed protein using immobilized metal affinity chromatography. • 4.
(§2) The thermal stability of purified LacBP candidate proteins was determined by measuring the temperature-dependence of the fluorescence signal of an extrinsically added dye, SYPRO, using a Roche LightCycler (Layton and Hellinga, 2010, Biochemistry, 49, 10831-41). The total fluorescence intensity, S, is given by S=βFfF+βUfU 11 where fF and fU are the fractions of protein in the folded and unfolded states, respectively, and βF and βUthe fluorescence baselines of these two states. To get the fractions of the two states, we have
(§3) To obtain the temperature dependence of the binding reaction, the Kd values of all the individually determined isotherms were fit the Gibbs-Hemholtz equation (Layton and Hellinga, 2010, Biochemistry, 49, 10831-41): […]

[2] = molecular target: T1, Flexistipes sinusarabici fsLacBP13, YP_004603455.1, SEQ ID NO: 13 (expressed form SEQ ID NO: 27) (Flexistipes sinusarabici, UniProt F8E724); experiment: as above; details: thermostability vs ligand concentration; fluorescence response of labeled conjugate
T1 construct: thermal shift
T1 sequence (F8E724 entry or part of it): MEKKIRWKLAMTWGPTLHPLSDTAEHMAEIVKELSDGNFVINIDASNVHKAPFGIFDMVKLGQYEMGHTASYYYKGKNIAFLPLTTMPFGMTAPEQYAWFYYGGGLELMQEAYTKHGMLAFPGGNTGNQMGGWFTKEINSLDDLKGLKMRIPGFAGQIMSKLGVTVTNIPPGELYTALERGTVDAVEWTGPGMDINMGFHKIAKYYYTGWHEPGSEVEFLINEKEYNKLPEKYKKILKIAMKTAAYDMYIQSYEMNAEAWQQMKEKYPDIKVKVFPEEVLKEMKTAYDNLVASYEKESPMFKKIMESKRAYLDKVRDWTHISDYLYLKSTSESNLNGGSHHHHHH
Text: as §1, §2, §3

[3] = molecular target: Pseudomonas stuztzeri psLacBP11, YP_006522676.1, SEQ ID NO: 11 (expressed form SEQ ID NO: 25) (Stutzerimonas nitrititolerans, UniProt A0ABX9V4I2); experiment: as above; details: thermostability vs ligand concentration; fluorescence response of labeled conjugate
Sequence of Pseudomonas stuztzeri psLacBP11, YP_006522676.1, SEQ ID NO: 11 (expressed form SEQ ID NO: 25) (A0ABX9V4I2 entry or part of it): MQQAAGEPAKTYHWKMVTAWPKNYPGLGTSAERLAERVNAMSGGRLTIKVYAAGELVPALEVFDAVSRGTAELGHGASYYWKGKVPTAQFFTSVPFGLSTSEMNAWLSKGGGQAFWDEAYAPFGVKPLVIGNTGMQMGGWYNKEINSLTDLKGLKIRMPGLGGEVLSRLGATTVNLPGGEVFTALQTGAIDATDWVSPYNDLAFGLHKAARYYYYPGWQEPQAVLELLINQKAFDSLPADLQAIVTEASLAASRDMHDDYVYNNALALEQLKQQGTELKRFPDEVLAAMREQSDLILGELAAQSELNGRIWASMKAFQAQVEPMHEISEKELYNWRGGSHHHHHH
Text: as §1, §2, §3

[4] = molecular target: Marinobacter sp. msLacBP6 variant Y187C (187C), SEQ ID NO: 38, Acrylodan conjugate; experiment: Fluorescence titration of conjugate; assay type: binding
[5] = molecular target: Marinobacter sp. msLacBP6 variant Y187C (187C), SEQ ID NO: 38, Badan conjugate; experiment: Fluorescence titration of conjugate; assay type: binding
[6] = molecular target: Marinobacter sp. msLacBP6 variant V192C, SEQ ID NO: 40, Acrylodan conjugate; experiment: Fluorescence titration of conjugate; assay type: binding; details: read-out: trueKd (lactate); monochromatic, 500 nm
[7] = molecular target: T2, Marinobacter adhaerens maLacBP8 variant F189C, SEQ ID NO: 43, Badan conjugate (Marinobacter adhaerens, UniProt E4PNW2, C105A/C90A/F252C); experiment: Fluorescence titration of conjugate; assay type: binding
T2 construct: Badan on Cys189
T2 sequence (E4PNW2 entry or part of it C90A/C105A/F252C): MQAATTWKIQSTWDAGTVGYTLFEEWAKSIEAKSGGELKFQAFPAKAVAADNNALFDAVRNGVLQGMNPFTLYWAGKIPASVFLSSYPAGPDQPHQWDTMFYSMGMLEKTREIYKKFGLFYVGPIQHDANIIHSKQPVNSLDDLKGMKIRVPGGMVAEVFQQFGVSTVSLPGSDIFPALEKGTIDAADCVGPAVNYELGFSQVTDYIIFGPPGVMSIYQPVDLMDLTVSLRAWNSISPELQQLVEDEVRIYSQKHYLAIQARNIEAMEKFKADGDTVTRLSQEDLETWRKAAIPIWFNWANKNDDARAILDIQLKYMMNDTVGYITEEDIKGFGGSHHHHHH

[8] = molecular target: T3, Pseudomonas stuztzeri psLacBP11 variant W195C, SEQ ID NO: 45, Acrylodan conjugate (Stutzerimonas nitrititolerans, UniProt A0ABX9V4I2, W224C); experiment: Fluorescence titration of conjugate; assay type: binding; details: λ1 487, λ2 466 nm
T3 construct: Acrylodan on Cys195
T3 sequence (A0ABX9V4I2 entry or part of it W224C): as the sequence (A0ABX9V4I2 entry or part of it) above, with W195C counted along it

[9] = molecular target: Marinobacter sp. msLacBP6 variant 187C, F68L, SEQ ID NO: 49, Acrylodan conjugate; experiment: Fluorescence titration of conjugate (affinity tuning); assay type: binding; details: λ1 459, λ2 516 nm
[10] = molecular target: Marinobacter sp. msLacBP6 variant 187C, F68L, SEQ ID NO: 49, Badan conjugate; experiment: as above; assay type: binding; details: λ1 463, λ2 535 nm
[11] = molecular target: Marinobacter sp. msLacBP6 variant 187C, L70M, SEQ ID NO: 53, Acrylodan conjugate; experiment: as above; assay type: binding; details: λ1 455, λ2 479 nm
[12] = molecular target: Marinobacter sp. msLacBP6 variant 187C, P150A, SEQ ID NO: 54, Acrylodan conjugate; experiment: as above; assay type: binding; details: read-out: trueKd (lactate); monochromatic, 463 nm
[13] = molecular target: Marinobacter sp. msLacBP6 variant 187C, P150S, SEQ ID NO: 55, Acrylodan conjugate; experiment: as above; assay type: binding; details: read-out: trueKd (lactate); monochromatic, 463 nm
[14] = molecular target: Marinobacter sp. msLacBP6 variant 187C, P150S, SEQ ID NO: 55, Badan conjugate; experiment: as above; assay type: binding; details: read-out: trueKd (lactate); monochromatic, 528 nm
[15] = molecular target: Marinobacter sp. msLacBP6 variant 187C, D220E, SEQ ID NO: 56, Badan conjugate; experiment: as above; assay type: binding; details: read-out: trueKd (lactate); monochromatic, 532 nm
[16] = molecular target: Marinobacter sp. msLacBP6 variant 187C, 70M, SEQ ID NO: 53, Acrylodan conjugate, immobilized on Ni-NTA beads; experiment: Lactate titration of immobilized conjugate on magnetic Ni-NTA beads; details: read-out: trueKd (lactate), λ1 452, λ2 525 nm
[17] = read-out: appKd (lactate), approximate, text statement for Acrylodan and Badan conjugates

## C[C@H](O)C(=O)O [lactate]
[1]
  Lactate Binding: weak^f,g
[2]
  Lactate Binding: weak^f,g
[3]
  Lactate Binding: weak^f,g
[4]; [17]
  Kd: ~400 µM
[4]; read-out: appKd (lactate), λ1 452, λ2 482 nm as printed in Table 5
  Kd: 400 µM
[4]; read-out: appKd (lactate), λ1 452, λ2 582 nm (FIG. 5A, Table 7)
  Kd: 400 µM
[4]; read-out: appKd (lactate), λ1 483, λ2 451 nm (Table 6)
  Kd: 230 µM
[4]; read-out: trueKd (lactate), λ1 452, λ2 482 nm as printed in Table 5
  Kd: 300 µM
[4]; read-out: trueKd (lactate), λ1 452, λ2 582 nm (FIG. 5A, Table 7)
  Kd: 300 µM
[4]; read-out: trueKd (lactate), λ1 483, λ2 451 nm (Table 6)
  Kd: 350 µM
[5]; [17]
  Kd: ~400 µM
[5]; read-out: appKd (lactate), λ1 460, λ2 537 nm
  Kd: 300 µM
[5]; read-out: appKd (lactate), λ1 539, λ2 459 nm (Table 6)
  Kd: 110 µM
[5]; read-out: trueKd (lactate), λ1 460, λ2 537 nm
  Kd: 200 µM
[5]; read-out: trueKd (lactate), λ1 539, λ2 459 nm (Table 6)
  Kd: 250 µM
[6]
  Kd: 20 µM
[7]
  Kd: 600 µM
[8]; read-out: appKd (lactate)
  Kd: > 100000 µM
[8]; read-out: trueKd (lactate)
  Kd: > 100000 µM
[9]; read-out: appKd (lactate)
  Kd: 600 µM
[9]; read-out: trueKd (lactate)
  Kd: 500 µM
[10]; read-out: appKd (lactate)
  Kd: 400 µM
[10]; read-out: trueKd (lactate)
  Kd: 400 µM
[11]; read-out: appKd (lactate)
  Kd: 1600 µM
[11]; read-out: trueKd (lactate)
  Kd: 1200 µM
[12]
  Kd: 6800 µM
[13]
  Kd: 24000 µM
[14]
  Kd: 14400 µM
[15]
  Kd: 3100 µM
[16]
  Kd: 1200 µM
